Values quoted from earlier work, collected in US20080097086A1, “Process for preparing anti-tumor oligosaccharide material from chitosan” (TENWELL BIOTECHNOLOGY LIMITED, priority 2006, published 2008).
Where “and” joins values, the source holds several entries; their conditions need not be identical. Equal entries are not always repeated.

Key:
[1] = system: fibrosarcoma (Meth-A) solid tumor cells
[2] = system: S180; details: intravenous, S180-implanted ddY mice

chitohexaose
dose displaying the strongest effect ([1]; Meth-A solid tumor): 10 mg/kg | inhibition of Meth-A solid tumor ([1]; in vivo): significant inhibition | inhibitory rate on tumor growth ([2]; 3 times at 100 mg/Kg/d, after seven days, 100 mg/kg/day): 85% and 93% | control of tumor growth ([2]; increased to 5 times): complete control of tumor growth
